Assay results as given in patent US6518243B1, “Desleucyl glycopeptide antibiotics and methods of making same” (Trustees of Princeton University, priority 1999, dated 2003).

Tests used:
Experiment in all cases: Zone of inhibition screen, 96 well agar array format
Assay type in all cases: cell-based
Design in all cases: scale not given here
[1] = system: E. faecalis (CL 4877)
Procedure, shortened: (§1)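 Each compound was tested for antibacterial activity against a shared bacterial panel, with screening carried out on agar in a 96-well array.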

[2] = system: S. aureus (ATCC 29213)
Procedure, shortened: as §1

[3] = system: S. epidermidis (ATCC 12228)
Procedure, shortened: as §1

[4] = zone of inhibition relative to 1 mg/ml p-chlorobiphenylvancomycin
[5] = zone of inhibition relative to 1 mg/ml stock solution of p-chlorobiphenylvancomycin

CSCCC(NC=O)C(=O)NC1C(=O)NC(CC(N)=O)C(=O)NC2C(=O)NC3C(=O)NC(C(=O)NC(C(=O)O)c4cc(O)cc(O)c4-c4cc3ccc4O)C(O)c3ccc(c(Cl)c3)Oc3cc2cc(c3OC2OC(CO)C(O)C(O)C2OC2CC(C)(NCc3ccc(-c4ccc(Cl)cc4)cc3)C(O)C(C)O2)Oc2ccc(cc2Cl)C1O (mixture of isomers) [Compound 326]
2: zone score, E. faecalis CL 4877 [1, 4] | zone score, S. aureus ATCC 29213 [2, 4] | zone score, S. epidermidis ATCC 12228 [3, 4]

CC(N)C(=O)NC(C)C(=O)NC1C(=O)NC(CC(N)=O)C(=O)NC2C(=O)NC3C(=O)NC(C(=O)NC(C(=O)O)c4cc(O)cc(O)c4-c4cc3ccc4O)C(O)c3ccc(c(Cl)c3)Oc3cc2cc(c3OC2OC(CO)C(O)C(O)C2OC2CC(C)(NCc3ccc(-c4ccc(Cl)cc4)cc3)C(O)C(C)O2)Oc2ccc(cc2Cl)C1O (stereo not drawn) [Compound 35]
2: zone score, E. faecalis CL 4877 [1, 5] | zone score, S. aureus ATCC 29213 [2, 5] | zone score, S. epidermidis ATCC 12228 [3, 5]

COc1cc(OC)c(CNC(=O)CC(N)C(=O)NC2C(=O)NC(CC(N)=O)C(=O)NC3C(=O)NC4C(=O)NC(C(=O)NC(C(=O)O)c5cc(O)cc(O)c5-c5cc4ccc5O)C(O)c4ccc(c(Cl)c4)Oc4cc3cc(c4OC3OC(CO)C(O)C(O)C3OC3CC(C)(NCc4ccc(-c5ccc(Cl)cc5)cc4)C(O)C(C)O3)Oc3ccc(cc3Cl)C2O)c(OC)c1 (stereo not drawn) [Compound 45]
2: zone score, E. faecalis CL 4877 [1, 5] | zone score, S. aureus ATCC 29213 [2, 5] | zone score, S. epidermidis ATCC 12228 [3, 5]

CC1OC(OC2C(Oc3c4cc5cc3Oc3ccc(cc3Cl)C(O)C3NC(=O)C(NC(=O)C5NC(=O)C(CC(N)=O)NC(=O)C(NC(=O)C(N)CSCCO)C(O)c5ccc(c(Cl)c5)O4)c4ccc(O)c(c4)-c4c(O)cc(O)cc4C(C(=O)O)NC3=O)OC(CO)C(O)C2O)CC(C)(NCc2ccc(-c3ccc(Cl)cc3)cc2)C1O (stereo not drawn) [Compound 48]
2: zone score, E. faecalis CL 4877 [1, 5] | zone score, S. aureus ATCC 29213 [2, 5] | zone score, S. epidermidis ATCC 12228 [3, 5]

CC1OC(OC2C(Oc3c4cc5cc3Oc3ccc(cc3Cl)C(O)C3NC(=O)C(NC(=O)C5NC(=O)C(CC(N)=O)NC(=O)C(NC(=O)C5CC(O)CN5)C(O)c5ccc(c(Cl)c5)O4)c4ccc(O)c(c4)-c4c(O)cc(O)cc4C(C(=O)O)NC3=O)OC(CO)C(O)C2O)CC(C)(NCc2ccc(-c3ccc(Cl)cc3)cc2)C1O (stereo not drawn) [Compound 54]
2: zone score, E. faecalis CL 4877 [1, 5] | zone score, S. aureus ATCC 29213 [2, 5] | zone score, S. epidermidis ATCC 12228 [3, 5]

CC1OC(OC2C(Oc3c4cc5cc3Oc3ccc(cc3Cl)C(O)C3NC(=O)C(NC(=O)C5NC(=O)C(CC(N)=O)NC(=O)C(NC(=O)CC(N)C(N)=O)C(O)c5ccc(c(Cl)c5)O4)c4ccc(O)c(c4)-c4c(O)cc(O)cc4C(C(=O)O)NC3=O)OC(CO)C(O)C2O)CC(C)(NCc2ccc(-c3ccc(Cl)cc3)cc2)C1O (stereo not drawn) [Compound 59]
2: zone score, E. faecalis CL 4877 [1, 5] | zone score, S. aureus ATCC 29213 [2, 5] | zone score, S. epidermidis ATCC 12228 [3, 5]

CC1OC(OC2C(Oc3c4cc5cc3Oc3ccc(cc3Cl)C(O)C3NC(=O)C(NC(=O)C5NC(=O)C(CC(N)=O)NC(=O)C(NC(=O)CCCN)C(O)c5ccc(c(Cl)c5)O4)c4ccc(O)c(c4)-c4c(O)cc(O)cc4C(C(=O)O)NC3=O)OC(CO)C(O)C2O)CC(C)(NCc2ccc(-c3ccc(Cl)cc3)cc2)C1O (stereo not drawn) [Compound 65]
2: zone score, E. faecalis CL 4877 [1, 5] | zone score, S. aureus ATCC 29213 [2, 5] | zone score, S. epidermidis ATCC 12228 [3, 5]

COc1cc(OC)c(CNC(=O)CCC(N)C(=O)NC2C(=O)NC(CC(N)=O)C(=O)NC3C(=O)NC4C(=O)NC(C(=O)NC(C(=O)O)c5cc(O)cc(O)c5-c5cc4ccc5O)C(O)c4ccc(c(Cl)c4)Oc4cc3cc(c4OC3OC(CO)C(O)C(O)C3OC3CC(C)(NCc4ccc(-c5ccc(Cl)cc5)cc4)C(O)C(C)O3)Oc3ccc(cc3Cl)C2O)c(OC)c1 (stereo not drawn) [Compound 66]
2: zone score, E. faecalis CL 4877 [1, 5] | zone score, S. aureus ATCC 29213 [2, 5] | zone score, S. epidermidis ATCC 12228 [3, 5]

CC1OC(OC2C(Oc3c4cc5cc3Oc3ccc(cc3Cl)C(O)C(NC(=O)C3CCCN3C(=O)C3CCCN3)C(=O)NC(CC(N)=O)C(=O)NC5C(=O)NC3C(=O)NC(C(=O)NC(C(=O)O)c5cc(O)cc(O)c5-c5cc3ccc5O)C(O)c3ccc(c(Cl)c3)O4)OC(CO)C(O)C2O)CC(C)(NCc2ccc(-c3ccc(Cl)cc3)cc2)C1O (stereo not drawn) [Compound 86]
2: zone score, E. faecalis CL 4877 [1, 5] | zone score, S. aureus ATCC 29213 [2, 5] | zone score, S. epidermidis ATCC 12228 [3, 5]

CC(=O)OCC(N)C(=O)NC1C(=O)NC(CC(N)=O)C(=O)NC2C(=O)NC3C(=O)NC(C(=O)NC(C(=O)O)c4cc(O)cc(O)c4-c4cc3ccc4O)C(O)c3ccc(c(Cl)c3)Oc3cc2cc(c3OC2OC(CO)C(O)C(O)C2OC2CC(C)(NCc3ccc(-c4ccc(Cl)cc4)cc3)C(O)C(C)O2)Oc2ccc(cc2Cl)C1O (stereo not drawn) [Compound 87]
2: zone score, E. faecalis CL 4877 [1, 5] | zone score, S. aureus ATCC 29213 [2, 5] | zone score, S. epidermidis ATCC 12228 [3, 5]

CC1OC(OC2C(Oc3c4cc5cc3Oc3ccc(cc3Cl)C(O)C3NC(=O)C(NC(=O)C5NC(=O)C(CC(N)=O)NC(=O)C(NC(=O)CC[S+](C)C)C(O)c5ccc(c(Cl)c5)O4)c4ccc(O)c(c4)-c4c(O)cc(O)cc4C(C(=O)O)NC3=O)OC(CO)C(O)C2O)CC(C)(NCc2ccc(-c3ccc(Cl)cc3)cc2)C1O (stereo not drawn) [Compound 94]
2: zone score, E. faecalis CL 4877 [1, 5] | zone score, S. aureus ATCC 29213 [2, 5] | zone score, S. epidermidis ATCC 12228 [3, 5]

CC1OC(OC2C(Oc3c4cc5cc3Oc3ccc(cc3Cl)C(O)C3NC(=O)C(NC(=O)C5NC(=O)C(CC(N)=O)NC(=O)C(NC(=O)CCO)C(O)c5ccc(c(Cl)c5)O4)c4ccc(O)c(c4)-c4c(O)cc(O)cc4C(C(=O)O)NC3=O)OC(CO)C(O)C2O)CC(C)(NCc2ccc(-c3ccc(Cl)cc3)cc2)C1O (stereo not drawn) [Compound 106]
2: zone score, E. faecalis CL 4877 [1, 5] | zone score, S. aureus ATCC 29213 [2, 5] | zone score, S. epidermidis ATCC 12228 [3, 5]

CC(=O)N1CCCC1C(=O)NC1C(=O)NC(CC(N)=O)C(=O)NC2C(=O)NC3C(=O)NC(C(=O)NC(C(=O)O)c4cc(O)cc(O)c4-c4cc3ccc4O)C(O)c3ccc(c(Cl)c3)Oc3cc2cc(c3OC2OC(CO)C(O)C(O)C2OC2CC(C)(NCc3ccc(-c4ccc(Cl)cc4)cc3)C(O)C(C)O2)Oc2ccc(cc2Cl)C1O (stereo not drawn) [Compound 116]
2: zone score, E. faecalis CL 4877 [1, 5] | zone score, S. aureus ATCC 29213 [2, 5] | zone score, S. epidermidis ATCC 12228 [3, 5]

CC(=O)OC(CC(=O)NC1C(=O)NC(CC(N)=O)C(=O)NC2C(=O)NC3C(=O)NC(C(=O)NC(C(=O)O)c4cc(O)cc(O)c4-c4cc3ccc4O)C(O)c3ccc(c(Cl)c3)Oc3cc2cc(c3OC2OC(CO)C(O)C(O)C2OC2CC(C)(NCc3ccc(-c4ccc(Cl)cc4)cc3)C(O)C(C)O2)Oc2ccc(cc2Cl)C1O)C[N+](C)(C)C (stereo not drawn) [Compound 119]
2: zone score, E. faecalis CL 4877 [1, 5] | zone score, S. aureus ATCC 29213 [2, 5] | zone score, S. epidermidis ATCC 12228 [3, 5]

CC(=O)NCC(=O)NCC(=O)NC1C(=O)NC(CC(N)=O)C(=O)NC2C(=O)NC3C(=O)NC(C(=O)NC(C(=O)O)c4cc(O)cc(O)c4-c4cc3ccc4O)C(O)c3ccc(c(Cl)c3)Oc3cc2cc(c3OC2OC(CO)C(O)C(O)C2OC2CC(C)(NCc3ccc(-c4ccc(Cl)cc4)cc3)C(O)C(C)O2)Oc2ccc(cc2Cl)C1O (stereo not drawn) [Compound 120]
2: zone score, E. faecalis CL 4877 [1, 5] | zone score, S. aureus ATCC 29213 [2, 5] | zone score, S. epidermidis ATCC 12228 [3, 5]

CC1OC(OC2C(Oc3c4cc5cc3Oc3ccc(cc3Cl)C(O)C3NC(=O)C(NC(=O)C5NC(=O)C(CC(N)=O)NC(=O)C(NC(=O)CO)C(O)c5ccc(c(Cl)c5)O4)c4ccc(O)c(c4)-c4c(O)cc(O)cc4C(C(=O)O)NC3=O)OC(CO)C(O)C2O)CC(C)(NCc2ccc(-c3ccc(Cl)cc3)cc2)C1O (stereo not drawn) [Compound 158]
2: zone score, E. faecalis CL 4877 [1, 5] | zone score, S. aureus ATCC 29213 [2, 5] | zone score, S. epidermidis ATCC 12228 [3, 5]

CC(=O)N[C@@H](Cc1c[nH]cn1)C(=O)N[C@H]1C(=O)N[C@@H](CC(N)=O)C(=O)N[C@H]2C(=O)NC3C(=O)N[C@H](C(=O)N[C@@H](C(=O)O)c4cc(O)cc(O)c4-c4cc3ccc4O)[C@H](O)c3ccc(c(Cl)c3)Oc3cc2cc(c3OC2OC(CO)C(O)C(O)C2OC2CC(C)(NCc3ccc(-c4ccc(Cl)cc4)cc3)C(O)C(C)O2)Oc2ccc(cc2Cl)[C@H]1O (stereo partly drawn) [Compound 181]
2: zone score, E. faecalis CL 4877 [1, 5] | zone score, S. aureus ATCC 29213 [2, 5] | zone score, S. epidermidis ATCC 12228 [3, 5]

CC(=O)N1CCC[C@H]1C(=O)N[C@H]1C(=O)N[C@@H](CC(N)=O)C(=O)N[C@H]2C(=O)NC3C(=O)N[C@H](C(=O)N[C@@H](C(=O)O)c4cc(O)cc(O)c4-c4cc3ccc4O)[C@H](O)c3ccc(c(Cl)c3)Oc3cc2cc(c3OC2OC(CO)C(O)C(O)C2OC2CC(C)(NCc3ccc(-c4ccc(Cl)cc4)cc3)C(O)C(C)O2)Oc2ccc(cc2Cl)[C@H]1O (stereo partly drawn) [Compound 183]
2: zone score, E. faecalis CL 4877 [1, 5] | zone score, S. aureus ATCC 29213 [2, 5] | zone score, S. epidermidis ATCC 12228 [3, 5]

CC1OC(OC2C(Oc3c4cc5cc3Oc3ccc(cc3Cl)C(O)C3NC(=O)C(NC(=O)C5NC(=O)C(CC(N)=O)NC(=O)C(NC(=O)C(Cc5c[nH]cn5)NC=O)C(O)c5ccc(c(Cl)c5)O4)c4ccc(O)c(c4)-c4c(O)cc(O)cc4C(C(=O)O)NC3=O)OC(CO)C(O)C2O)CC(C)(NCc2ccc(-c3ccc(Cl)cc3)cc2)C1O (stereo not drawn) [Compound 195]
2: zone score, E. faecalis CL 4877 [1, 5] | zone score, S. aureus ATCC 29213 [2, 5] | zone score, S. epidermidis ATCC 12228 [3, 5]

CC1OC(OC2C(Oc3c4cc5cc3Oc3ccc(cc3Cl)C(O)C3NC(=O)C(NC(=O)C5NC(=O)C(CC(N)=O)NC(=O)C(NC(=O)CCC(N)=O)C(O)c5ccc(c(Cl)c5)O4)c4ccc(O)c(c4)-c4c(O)cc(O)cc4C(C(=O)O)NC3=O)OC(CO)C(O)C2O)CC(C)(NCc2ccc(-c3ccc(Cl)cc3)cc2)C1O (stereo not drawn) [Compound 202]
2: zone score, E. faecalis CL 4877 [1, 5] | zone score, S. aureus ATCC 29213 [2, 5] | zone score, S. epidermidis ATCC 12228 [3, 5]

CC(NC(=O)OCc1ccccc1)C(=O)NCC(=O)NCC(=O)NC1C(=O)NC(CC(N)=O)C(=O)NC2C(=O)NC3C(=O)NC(C(=O)NC(C(=O)O)c4cc(O)cc(O)c4-c4cc3ccc4O)C(O)c3ccc(c(Cl)c3)Oc3cc2cc(c3OC2OC(CO)C(O)C(O)C2OC2CC(C)(NCc3ccc(-c4ccc(Cl)cc4)cc3)C(O)C(C)O2)Oc2ccc(cc2Cl)C1O (stereo not drawn) [Compound 209]
2: zone score, E. faecalis CL 4877 [1, 4] | zone score, S. aureus ATCC 29213 [2, 4] | zone score, S. epidermidis ATCC 12228 [3, 4]
